Consider three molecules from ChEMBL document CHEMBL1133231, “Syntheses and binding affinities of 6-nitroquipazine analogues for serotonin transporter. Part 1” (Bioorg Med Chem Lett, 2000).

pKi: −log10 of the molar value.

Sequence of Sodium-dependent serotonin transporter (P31652 whole entry): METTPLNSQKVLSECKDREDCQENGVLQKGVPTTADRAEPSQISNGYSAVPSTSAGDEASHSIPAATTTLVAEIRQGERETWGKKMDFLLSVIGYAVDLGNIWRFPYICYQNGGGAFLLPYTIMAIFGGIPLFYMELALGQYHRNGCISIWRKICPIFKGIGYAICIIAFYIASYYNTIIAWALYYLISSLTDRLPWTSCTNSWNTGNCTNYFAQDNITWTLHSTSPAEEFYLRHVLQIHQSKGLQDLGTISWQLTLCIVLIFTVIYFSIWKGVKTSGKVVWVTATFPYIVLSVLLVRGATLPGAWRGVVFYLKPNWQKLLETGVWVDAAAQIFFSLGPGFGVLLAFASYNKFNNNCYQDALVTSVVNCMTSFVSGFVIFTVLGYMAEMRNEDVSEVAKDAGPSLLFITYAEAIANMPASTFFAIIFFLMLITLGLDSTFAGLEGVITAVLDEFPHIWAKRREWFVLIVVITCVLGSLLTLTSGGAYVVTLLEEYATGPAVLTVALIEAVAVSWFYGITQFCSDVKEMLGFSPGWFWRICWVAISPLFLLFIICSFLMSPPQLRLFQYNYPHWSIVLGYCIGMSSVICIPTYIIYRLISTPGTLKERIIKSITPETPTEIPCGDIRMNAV

This test addresses Sodium-dependent serotonin transporter (Rattus norvegicus, UniProt P31652). The test can be described thus: Inhibition of [3H]citalopram binding to Serotonin transporter of rat cerebral cortex. The format is tissue-based.
The term pKi denotes the negative decadic logarithm of the Ki, by convention in mol/L. The low end stands for a large Ki, the high end for a small Ki. In the case of `NCCNc1ccc2cc([N+](=O)[O-])ccc2n1`, the negative logarithm of the Ki (pKi) was 6.78. Under `c1ccc2nc(N3CCNCC3)ccc2c1` [QUIPAZINE] stands 7.20; under `O=[N+]([O-])c1cc([N+](=O)[O-])c2nc(N3CCNCC3)ccc2c1`, 6.50.
